Measurements as given in ChEMBL document CHEMBL5380807, “Imidazo[1,2-a]Pyridine Derivatives as Novel Dual-Target Inhibitors of ABCB1 and ABCG2 for Reversing Multidrug Resistance” (J Med Chem, 2023).
The source made the active and inactive calls. The rule behind the calls is not given here.

Legend:
[1] = Half life in Sprague-Dawley rat at 5 mg/kg, iv by LC-MS/MS analysis; type: ADME, organism-based; conditions: in vivo
[2] = Toxicity in BALB/c mouse xenografted with human K562 cells assessed as body weight loss at 20 mg/kg, iv QD for 14 days; type: organism-based; conditions: in vivo, 336 h, time 14 day
HEK293 [3] = assay: Reversal of ABCG2 mediated multidrug resistance in human HEK293 cells overexpressing ABCG2 assessed as change in abcg2 mRNA expression level at 2.5 uM incubated for 48 hrs by real time RT-PCR analysis; type: functional, cell-based
[4] = Stability in rat plasma assessed as parent compound remaining at 80 ug/ml and measured after 300 mins by LC-MS/MS analysis; type: ADME, cell-free; conditions: 5 h, at 80 µg/mL
K562/A02 [5] = assay: Reversal of ABCB1 mediated multidrug resistance in human K562/A02 cells overexpressing ABCB1 assessed as decrease in survival rate at 1.25 to 5 uM preincubated for 1 hrs followed by vincristine addition and measured after 72 hrs by MTS assay; type: functional, cell-based; conditions: dose 1.25-5 µM, time 73.0 hrs
K562 [6] = assay: Antitumor activity against human K562 cells xenografted in BALB/c mouse assessed as tumor growth inhibition at 40 mg/kg, iv QD for 14 days in presence of adriamycin; type: functional, organism-based; conditions: time 14.0 day
K562/A02 [7] = assay: Reversal of ABCB1 mediated multidrug resistance in human K562/A02 cells overexpressing ABCB1 assessed as change in abcb1 mRNA expression level at 2.5 uM incubated for 72 hrs by real time RT-PCR analysis; type: functional, cell-based
[8] = Cytotoxicity against human K562 cells assessed as decrease in cell survival rate incubated for 72 hrs by MTS assay; type: toxicity, cell-based
K562/A02 [9] = assay: Reversal of ABCB1 mediated adriamycin resistance in human K562/A02 overexpressing ABCB1 assessed as decrease in survival rate at 5 uM preincubated for 1 hrs followed by adriamycin addition and measured after 72 hrs by MTS assay; type: functional
[10] = Cytotoxicity against human HEK293 cells expressing ABCG2 assessed as reduction in cell viability incubated for 72 hrs by SRB assay; type: toxicity, cell-based
HEK293 [11] = assay: Reversal of ABCG2 mediated mitoxantrone resistance in human HEK293 assessed as decrease in survival rate at 1.25 to 5 uM preincubated for 1 hrs followed by mitoxantrone addition and measured after 72 hrs by SRB assay; type: functional, cell-based; conditions: dose 1.25-5 µM, time 73.0 hrs
[12] = Metabolic stability in rat liver microsomes assessed as intrinsic clearance at 80 ug/ml preincubated for 5 mins followed by NADPH addition and measured upto 120 mins by LC-MS/MS analysis; type: ADME, Microsome; conditions: dose 80 µg/ml, time < 125 min, read-out: CLH
K562/A02 [13] = assay: Antitumor activity against human K562/A02 cells overexpressing ABCB1 xenografted in BALB/c mouse assessed as tumor growth inhibition at 40 mg/kg, iv QD for 14 days in presence of adriamycin; type: functional, organism-based; conditions: time 14.0 day
[14] = AUCt in Sprague-Dawley rat at 5 mg/kg, iv by LC-MS/MS analysis; type: ADME, organism-based; design: dose 5 mg/kg, route iv; conditions: in vivo
HEK293 [15] = assay: Reversal of ABCG2 mediated multidrug resistance in human HEK293 overexpressing ABCG2 assessed as decrease in survival rate at 1.25 to 5 uM preincubated for 1 hrs followed by topotecan addition and measured after 72 hrs by SRB assay; type: functional, cell-based; conditions: dose 1.25-5 µM, time 73.0 hrs
K562 [16] = assay: Reversal of ABCB1 mediated adriamycin resistance in human K562 assessed as decrease in survival rate at 1.25 to 5 uM preincubated for 1 hrs followed by adriamycin addition and measured after 72 hrs by MTS assay; type: functional, cell-based; conditions: dose 1.25-5 µM, time 73.0 hrs
HEK293 [17] = assay: Reversal of ABCG2 mediated mitoxantrone resistance in human HEK293 overexpressing ABCG2 assessed as decrease in survival rate at 1.25 to 5 uM preincubated for 1 hrs followed by mitoxantrone addition and measured after 72 hrs by SRB assay; type: functional, cell-based; conditions: dose 1.25-5 µM, time 73.0 hrs
[18] = biological target: T1, Broad substrate specificity ATP-binding cassette transporter ABCG2 (Homo sapiens, UniProt Q9UNQ0); assay: Inhibition of ABCG2 (unknown origin) ATPase activity assessed as decrease in luminescence by firefly luciferase reporter assay
T1 sequence (Q9UNQ0 whole entry): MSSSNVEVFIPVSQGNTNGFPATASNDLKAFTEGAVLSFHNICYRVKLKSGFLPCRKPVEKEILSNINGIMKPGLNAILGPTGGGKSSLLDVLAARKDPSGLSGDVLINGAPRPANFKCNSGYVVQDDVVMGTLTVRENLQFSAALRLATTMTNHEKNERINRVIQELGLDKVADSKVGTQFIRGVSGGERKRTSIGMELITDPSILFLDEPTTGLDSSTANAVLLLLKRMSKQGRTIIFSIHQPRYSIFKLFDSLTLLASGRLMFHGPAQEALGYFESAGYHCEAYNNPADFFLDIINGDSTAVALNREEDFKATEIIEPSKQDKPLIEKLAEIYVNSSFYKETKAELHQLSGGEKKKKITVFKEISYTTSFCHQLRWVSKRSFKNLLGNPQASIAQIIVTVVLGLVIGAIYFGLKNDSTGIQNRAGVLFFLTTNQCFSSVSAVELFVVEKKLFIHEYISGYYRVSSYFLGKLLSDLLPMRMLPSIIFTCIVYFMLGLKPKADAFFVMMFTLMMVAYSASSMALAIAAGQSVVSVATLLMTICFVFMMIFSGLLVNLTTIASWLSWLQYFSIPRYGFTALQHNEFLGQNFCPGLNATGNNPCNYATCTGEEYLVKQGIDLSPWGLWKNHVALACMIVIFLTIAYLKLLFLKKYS

[19] = Metabolic stability in rat liver microsomes assessed as half life at 80 ug/ml preincubated for 5 mins followed by NADPH addition and measured upto 120 mins by LC-MS/MS analysis; type: ADME, Microsome; conditions: dose 80 µg/ml, time < 125 min
[20] = Toxicity in BALB/c mouse xenografted with human K562/A02 cells overexpressing ABCB1 assessed as body weight loss at 20 mg/kg, iv QD for 14 days; type: organism-based; conditions: in vivo, 336 h, time 14 day
[21] = Volume of distribution at steady state in Sprague-Dawley rat at 5 mg/kg, iv by LC-MS/MS analysis; type: ADME, organism-based; conditions: in vivo, read-out: Vdss
[22] = Toxicity in iv dosed BALB/c mouse xenografted with human K562/A02 cells overexpressing ABCB1 assessed as lethality; type: organism-based; conditions: in vivo
K562/A02 [23] = assay: Reversal of ABCB1 mediated adriamycin resistance in human K562/A02 overexpressing ABCB1 assessed as decrease in survival rate at 1.25 to 5 uM preincubated for 1 hrs followed by adriamycin addition and measured after 72 hrs by MTS assay; type: functional, cell-based; conditions: dose 1.25-5 µM, time 73.0 hrs
K562/A02 [24] = assay: Reversal of ABCB1 mediated multidrug resistance in human K562/A02 cells overexpressing ABCB1 assessed as decrease in survival rate at 1.25 uM preincubated for 1 hrs followed by vincristine addition and measured after 72 hrs by MTS assay; type: functional; conditions: time 73 hrs
HEK293 [25] = assay: Reversal of ABCG2 mediated multidrug resistance in human HEK293 overexpressing ABCG2 assessed as decrease in survival rate at 1.25 to 5 uM preincubated for 1 hrs followed by adriamycin addition and measured after 72 hrs by SRB assay; type: functional, cell-based; conditions: dose 1.25-5 µM, time 73.0 hrs
[26] = Cytotoxicity against human HEK293 cells assessed as reduction in cell viability incubated for 72 hrs by SRB assay; type: toxicity, cell-based
[27] = Toxicity in BALB/c mouse xenografted with human K562/A02 cells overexpressing ABCB1 assessed as body weight loss at 10 to 40 mg/kg, iv QD for 14 days in presence of adriamycin; type: organism-based; conditions: in vivo, 336 h, dose 10-40 mg/kg, time 14 day
[28] = biological target: ATP-dependent translocase ABCB1 (Homo sapiens, UniProt P08183); assay: Inhibition of ABCB1 (unknown origin) ATPase activity assessed as decrease in luminescence by firefly luciferase reporter assay
Sequence of ATP-dependent translocase ABCB1 (P08183 whole entry): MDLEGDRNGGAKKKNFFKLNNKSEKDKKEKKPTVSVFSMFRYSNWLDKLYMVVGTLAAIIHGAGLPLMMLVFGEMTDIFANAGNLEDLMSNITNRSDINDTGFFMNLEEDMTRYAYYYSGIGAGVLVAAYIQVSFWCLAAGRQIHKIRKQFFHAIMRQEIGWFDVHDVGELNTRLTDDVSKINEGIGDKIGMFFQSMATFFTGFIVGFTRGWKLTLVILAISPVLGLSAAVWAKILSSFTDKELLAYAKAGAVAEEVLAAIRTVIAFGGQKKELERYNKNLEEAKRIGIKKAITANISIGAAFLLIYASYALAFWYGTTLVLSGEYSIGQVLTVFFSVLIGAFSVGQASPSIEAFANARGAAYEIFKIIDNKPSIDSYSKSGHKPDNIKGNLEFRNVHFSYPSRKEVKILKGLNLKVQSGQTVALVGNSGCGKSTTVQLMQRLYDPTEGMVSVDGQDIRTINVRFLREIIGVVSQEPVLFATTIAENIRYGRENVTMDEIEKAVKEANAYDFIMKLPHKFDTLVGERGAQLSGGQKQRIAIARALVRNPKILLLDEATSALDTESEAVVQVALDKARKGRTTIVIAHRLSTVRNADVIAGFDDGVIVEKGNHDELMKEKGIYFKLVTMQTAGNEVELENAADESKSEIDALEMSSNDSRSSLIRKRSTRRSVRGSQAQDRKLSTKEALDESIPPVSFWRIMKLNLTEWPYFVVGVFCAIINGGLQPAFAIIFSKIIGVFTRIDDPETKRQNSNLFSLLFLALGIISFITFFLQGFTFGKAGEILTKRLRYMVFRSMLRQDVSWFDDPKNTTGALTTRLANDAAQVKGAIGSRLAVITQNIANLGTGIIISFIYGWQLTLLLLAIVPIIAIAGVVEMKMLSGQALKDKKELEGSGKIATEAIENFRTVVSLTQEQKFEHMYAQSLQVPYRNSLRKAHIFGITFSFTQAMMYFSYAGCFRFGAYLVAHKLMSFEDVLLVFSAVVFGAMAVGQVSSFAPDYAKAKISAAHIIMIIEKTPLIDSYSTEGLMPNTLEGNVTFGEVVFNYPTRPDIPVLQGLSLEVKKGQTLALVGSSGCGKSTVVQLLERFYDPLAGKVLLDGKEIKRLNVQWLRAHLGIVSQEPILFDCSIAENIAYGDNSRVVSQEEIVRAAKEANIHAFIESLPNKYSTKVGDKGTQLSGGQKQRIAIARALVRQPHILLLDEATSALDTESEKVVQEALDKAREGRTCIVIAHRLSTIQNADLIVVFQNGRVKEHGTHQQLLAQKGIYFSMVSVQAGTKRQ

[29] = Cytotoxicity against human K562/A02 cells overexpressing ABCB1 assessed as decrease in cell survival rate incubated for 72 hrs by MTS assay; type: toxicity, cell-based
[30] = Toxicity in BALB/c mouse xenografted with human K562 cells assessed as body weight loss at 10 to 40 mg/kg, iv QD for 14 days in presence of adriamycin; type: organism-based; conditions: in vivo, 336 h, dose 10-40 mg/kg, time 14 day
[31] = Clearance in Sprague-Dawley rat at 5 mg/kg, iv by LC-MS/MS analysis; type: ADME, organism-based; conditions: in vivo
[32] = AUC (0 to infinity) in Sprague-Dawley rat at 5 mg/kg, iv by LC-MS/MS analysis; type: ADME, organism-based; design: dose 5 mg/kg, route iv; conditions: in vivo
HEK293 [33] = assay: Reversal of ABCG2 mediated multidrug resistance in human HEK293 cells overexpressing ABCG2 assessed as change in ABCG2 protein expression level at 2.5 uM incubated for 48 hrs by Western blot analysis; type: functional, cell-based
K562/A02 [34] = assay: Reversal of ABCB1 mediated multidrug resistance in human K562/A02 cells overexpressing ABCB1 assessed as decrease in survival rate at 1.25 to 5 uM preincubated for 1 hrs followed by paclitaxel addition and measured after 72 hrs by MTS assay; type: functional, cell-based; conditions: dose 1.25-5 µM, time 73.0 hrs
K562/A02 [35] = assay: Reversal of ABCB1 mediated multidrug resistance in human K562/A02 cells overexpressing ABCB1 assessed as change in ABCB1 protein expression level at 2.5 uM incubated for 72 hrs by Western blot analysis; type: functional, cell-based

O=C(CN1CCN(c2ccc(OC(F)(F)F)cc2)CC1)Nc1ccc(-c2nc3ccccn3c2CN2CCN(c3ccccc3)CC2)cc1
half-life [1]: 2.25 h
Activity [2]: Non-Toxic
Activity (HEK293 [3]): inactive
Stability [4]: Stable
Activity (K562/A02 [5]): Active
Activity (K562 [6]): inactive
Activity (K562/A02 [7]): inactive
IC50 at 72 h [8]: > 100 µM
Activity (K562/A02 [9]): <30%
IC50 at 72 h [10]: 67.7 µM
Activity (HEK293 [11]): inactive
microsomal CLint at 80 ug/ml [12]: 2.27 µL/min/mg
Activity (K562/A02 [13]): Active
AUC(0-t) [14]: 651 ng·h/mL
Activity (HEK293 [15]): Active
Activity (K562 [16]): inactive
Activity (HEK293 [17]): Active
inhibition (INH) [18]: Active
half-life at 80 ug/ml [19]: 1.02 h
Activity [20]: Non-Toxic
Vd [21]: 9.41 L/kg
LD50 [22]: > 200 mg/kg/day
Activity (K562/A02 [23]): Active
Activity (K562/A02 [24]): 56%
Activity (HEK293 [25]): Active
IC50 at 72 h [26]: 53.4 µM
Activity [27]: Non-Toxic
inhibition (INH) [28]: Active
IC50 at 72 h [29]: > 100 µM
Activity [30]: Non-Toxic
clearance [31]: 130 mL/min/kg
AUC(0-inf) [32]: 676 ng·h/mL
Activity (HEK293 [33]): inactive
Activity (K562/A02 [34]): Active
Activity (K562/A02 [35]): inactive
